This passage reports IC50, Solubility and inhibition results from paper PMC7582705, “Structure-Based Discovery of Novel Chemical Classes of Autotaxin Inhibitors” (International Journal of Molecular Sciences, 2020).

One data set deals with ATX (Homo sapiens, UniProt Q13822). In words: Amplex Red Lyso-phospholipase D assay, human ATX. Format: biochemical. On the set-up: purchased Sino Biological. How it is done: (§1) All compounds proposed were assessed for their ATX inhibitory activity in vitro using the Amplex Red assay. The Amplex Red Lyso-phospholipase D assay is a fluorometry-based assay providing a sensitive method for measuring Lyso-phospholipase D (ATX) activity in vitro. In this enzyme-coupled assay, ATX activity is monitored indirectly using 10-acetyl-3,7-dihydrophenoxazine (Amplex Red reagent), a sensitive fluorogenic probe for H2O2. ATX initially cleaves the Lysophosphatidylcholine (LPC) substrate to yield choline and Lysophosphatidic acid (LPA), while choline gets subsequently oxidized by choline oxidase to betaine and H2O2. Lastly, H2O2, in the presence of horseradish peroxidase (HRP), reacts with Amplex Red reagent in a 1:1 stoichiometry to generate the highly fluorescent product resorufin.
The inhibition assay was performed as previously described with some modifications in order to accommodate the newly-discovered lag phase in ATX kinetics. To this end, and in order to provide adequate time to the hydrolysis of LPC by ATX, we added a 30min incubation period between ATX, inhibitors and LPC. Briefly, 2 μL of different concentrations of inhibitors diluted in DMSO (Sigma-Aldrich, St. Louis, MO, USA) were incubated with 50 µL of ATX 8 nM (human or mouse ATX from Sino Biological), and 48 µL reaction buffer (50 mM Tris-Cl pH 8.0 from Thermo Fisher Scientific, Waltham, MA, USA and 5 mM CaCl2 from Honeywell-Fluka, Charlotte, NC, USA) in a black 96-well microplate for 15 min at 37 °C. Thence, another 50 µL of reaction buffer with 200 μM LPC substrate 16:0 (Avanti Polar Lipids Inc, Alabaster, AL, USA) ([…]) was added to the reaction mixture and incubated for 30 min at 37 °C in order for ATX to convert LPC to LPA and choline. Finally, 50 µL of working solution containing 200 μM Amplex Red (Invitrogen, Carlsbad, CA, USA), 4 U/mL HRP (Sigma-Aldrich, St. Louis, MO, USA), 0.4 U/mL choline oxidase (Sigma-Aldrich, St. Louis, MO, USA) in 50 mM Tris-HCl pH 8.0 and 5 mM CaCl2 was added to measure the produced choline. The reaction was monitored at 37 °C in a fluorescence plate reader using excitation at 530 nm and reading at 590 nm, every 5 min for 30 min. The velocity of the reaction and the remaining activity of ATX were calculated at the linear phase of the reaction and dose-response inhibition graphs were plotted with GraphPad Software (GraphPad Software, San Diego, CA, USA). […] In order to evaluate a possible effect of the compounds on the second (choline oxidase) and third (HRP) enzymes of the Amplex Red assay, we also performed the assay in the absence of ATX but in the presence of the compounds. Instead of ATX, we added choline chloride at a final concentration of 2 µM so as the second and third steps of the assay could proceed normally.

Another data set can be described thus: Solubility (Table S1). Particulars: YES/NO.
For a further data set, the target named is T1, mouse ATX (Mus musculus, UniProt Q9R1E6).
T1 construct: purchased Sino Biological
In words: Amplex Red Lyso-phospholipase D assay, mouse ATX. The class given is biochemical. Particulars: in vitro IC50 (mATX 2nM), Table S2, mATX 2nM. As to the method:
as §1
The inhibition assay was performed as previously described with some modifications in order to accommodate the newly-discovered lag phase in ATX kinetics. To this end, and in order to provide adequate time to the hydrolysis of LPC by ATX, we added a 30min incubation period between ATX, inhibitors and LPC. Briefly, 2 μL of different concentrations of inhibitors diluted in DMSO (Sigma-Aldrich, St. Louis, MO, USA) were incubated with 50 µL of ATX 8 nM (human or mouse ATX from Sino Biological), and 48 µL reaction buffer (50 mM Tris-Cl pH 8.0 from Thermo Fisher Scientific, Waltham, MA, USA and 5 mM CaCl2 from Honeywell-Fluka, Charlotte, NC, USA) in a black 96-well microplate for 15 min at 37 °C. Thence, another 50 µL of reaction buffer with 200 μM LPC substrate 16:0 (Avanti Polar Lipids Inc, Alabaster, AL, USA) (final concentrations of LPC and ATX are 50 µM and 2 nM, respectively) was added to the reaction mixture and incubated for 30 min at 37 °C in order for ATX to convert LPC to LPA and choline. Finally, 50 µL of working solution containing 200 μM Amplex Red (Invitrogen, Carlsbad, CA, USA), 4 U/mL HRP (Sigma-Aldrich, St. Louis, MO, USA), 0.4 U/mL choline oxidase (Sigma-Aldrich, St. Louis, MO, USA) in 50 mM Tris-HCl pH 8.0 and 5 mM CaCl2 was added to measure the produced choline. The reaction was monitored at 37 °C in a fluorescence plate reader using excitation at 530 nm and reading at 590 nm, every 5 min for 30 min. The velocity of the reaction and the remaining activity of ATX were calculated at the linear phase of the reaction and dose-response inhibition graphs were plotted with GraphPad Software (GraphPad Software, San Diego, CA, USA). […] In order to evaluate a possible effect of the compounds on the second (choline oxidase) and third (HRP) enzymes of the Amplex Red assay, we also performed the assay in the absence of ATX but in the presence of the compounds. Instead of ATX, we added choline chloride at a final concentration of 2 µM so as the second and third steps of the assay could proceed normally.

Where [1] appears, read: recombinant human ATX 2 nM, LPC 16:0 substrate, Amplex Red, read-out: IC50 hATX.

Read-outs that look alike come from different tables or passages of the source.

A word on the IC50: it is the concentration that gives 50% inhibition. As to `O=C(CSc1nc2cc(Cl)ccc2o1)Nc1cc(C(F)(F)F)cc(C(F)(F)F)c1` [HTS01561, N-[3,5-bis(trifluoromethyl)phenyl]-2-[(5-chloro-1,3-benzoxazol-2-yl)thio]acetamide], at ATX (setting [1]), the IC50 is greater than 100 µM. Besides, the Solubility entry in “Solubility (Table S1)” is “YES”.

In the case of `O=S(=O)(Nc1cc(C(F)(F)F)ccc1N1CCc2ccccc2C1)c1cccc2nonc12` [HTS01790, N-[2-(3,4-dihydro-1H-isoquinolin-2-yl)-5-(trifluoromethyl)phenyl]-2,1,,3-benzoxadiazole-7-sulfonamide], the IC50 on ATX (setting [1]) is greater than 100 µM. Besides, the Solubility entry in the data set “Solubility (Table S1)” was “YES”.

Turning to `CC(C)(C)c1ccc(-c2nnc(SCC(=O)c3ccccc3)n2-c2ccc3c(c2)OCO3)cc1` [HTS02043, 2-[[4-(1,3-benzodioxol-5-yl)-5-(4-tert-butylphenyl)-1,2,4-triazol-3-yl]sulfanyl]-1-phenylethanone], the IC50 on ATX (setting [1]) was greater than 100 µM. The Solubility entry in “Solubility (Table S1)” is on record as “YES”.

For the molecule `Cc1ccc(S(=O)(=O)CCSc2n[nH]c(=O)n2-c2ccc(OCc3ccccc3)cc2)cc1` [HTS02873, 4-[4-(benzyloxy)phenyl]-5-({2-[(4-methylphenyl)sulfonyl]ethyl}sulfanyl)-2,4-dihydro-3H-1,2,4-triazol-3-one], the IC50 at ATX (setting [1]) is greater than 100 µM. In “Solubility (Table S1)”, the Solubility result was “YES”.

With `O=C(c1cccnc1Oc1ccc(Cl)cc1)N1CCN(C2c3ccccc3-c3ccccc32)CC1` [HTS07938, [2-(4-chlorophenoxy)pyridin-3-yl]-[4-(9H-fluoren-9-yl)piperazin-1-yl],methanone], the IC50 on ATX (setting [1]) is greater than 100 µM. In addition, the Solubility entry in “Solubility (Table S1)” is “YES”.

For `Cc1c(S(=O)(=O)N2CCN(C3c4ccccc4-c4ccccc43)CC2)sc2ccc(Cl)cc12` [HTS08762, 1-[(5-chloro-3-methyl-1-benzothiophen-2-yl)sulfonyl]-4-(9H-fluoren-9-yl)piperazine], the IC50 at ATX (setting [1]) is greater than 100 µM. For the same molecule, the Solubility entry in “Solubility (Table S1)” is “YES”.

As to `Cc1nn(-c2ccccc2)c2nc(OCC(=O)c3ccc(Br)cc3)c(C#N)c(-c3cccnc3)c12` [HTS09079, 6-[2-(4-bromophenyl)-2-oxoethoxy]-3-methyl-1-phenyl-4-pyridin-3-,ylpyrazolo[4,5-e]pyridine-5-carbonitrile], on ATX (setting [1]), the IC50 was greater than 100 µM. Also, in “Solubility (Table S1)”, the Solubility entry is “YES”.

Turning to `Cc1ccc(C2=CC(c3cn(-c4ccccc4)nc3-c3ccccc3)N3C(=O)CSC3=N2)cc1` (stereo not shown) [HTS09893, 5-(1,3-diphenylpyrazol-4-yl)-7-(4-methylphenyl)-5H-[1,3]thiazolo[3,2-a]pyrimidin-3-one], the IC50 at ATX (setting [1]) was greater than 100 µM. Also, the Solubility result in the data set “Solubility (Table S1)” is “YES”.

On to `O=C(CN1CCN(C2c3ccccc3-c3ccccc32)CC1)c1ccc2c(c1)OCO2` [HTS10658, 1-(1,3-benzodioxol-5-yl)-2-[4-(9H-fluoren-9-yl)piperazin-1-yl]ethanone], for which, on ATX (setting [1]), the IC50 was greater than 100 µM. Further, in “Solubility (Table S1)”, the Solubility result is “YES”.

For `Nc1ncnc2c1ncn2CCc1ccccc1` [HTS11215, 9-phenethyl-9H-purin-6-amine], the IC50 at ATX (setting [1]) was greater than 100 µM. Further, in “Solubility (Table S1)”, the Solubility result was “YES”.

For the molecule `NC(=NOC(=O)c1cncc(C#Cc2ccccc2)c1)c1cccc(C(F)(F)F)c1` [KM08386, O1-{[5-(2-phenyleth-1-ynyl)-3-pyridyl]carbonyl}-3-(trifluoromethyl)benzene-1-carbohydroximamide], the IC50 on ATX (setting [1]) was greater than 100 µM. In addition, in “Solubility (Table S1)”, the Solubility entry is on record as “YES”.

The term inhibition denotes the relative decrease from the control value, in per cent. `CCOC(=O)c1c(CN2CCCC2)n(-c2ccccc2)c2cc(Br)c(OC)cc12` [KM-3, ethyl 6-bromo-5-methoxy-1-phenyl-2-(pyrrolidin-1-ylmethyl)indole-3-carboxylate]: the inhibition at 30 µM at ATX (Table S2, at 30uM, read-out: %inhibition at 30uM) is 17%. In addition, the IC50 at ATX (in vitro IC50 (hATX 1nM), Table S2, hATX 1nM) amounted to 54 µM; on mouse ATX, 57 µM.

On to `O=C(NC(=O)c1ccc(-c2ccc(Cl)cc2)s1)Nc1cc(C(F)(F)F)cc(C(F)(F)F)c1` [MBE00201, N-[[3,5-bis(trifluoromethyl)phenyl]carbamoyl]-5-(4-chlorophenyl)thiophene-2-carboxamide], for which, on ATX (setting [1]), the IC50 is greater than 100 µM. Moreover, in “Solubility (Table S1)”, the Solubility entry is reported as “YES”.

Consider `O=C(C(=Cc1ccccc1)n1ccnc1)c1ccccc1OCc1ccccc1` [NRB02626, 1-[2-(benzyloxy)phenyl]-2-(1H-imidazol-1-yl)-3-phenylprop-2-en-1-0ne], for which the IC50 on ATX (setting [1]) is greater than 100 µM. Also, the Solubility result in “Solubility (Table S1)” is “YES”.

For `O=C1C2=C([CH]C=C[CH]2)C(=O)N1CN(Cc1csc2ccccc12)CN1C(=O)c2ccccc2C1=O` [PD00399], the IC50 at ATX (IC50 hATX, recombinant human ATX 2 nM, LPC 16:0 substrate, Amplex Red) is greater than 100 µM. In addition, in “Solubility (Table S1)”, the Solubility result is on record as “YES”.

For the molecule `COc1ccc(C2C(C(=O)O)c3ccccc3C(=O)N2Cc2ccc(F)cc2)cc1` (stereo not shown) [PD00668, 2-(4-fluorobenzyl)-3-(4-methoxyphenyl)-1-oxo-1,2,3,4-tetrahydroisoquinoline-4-carboxylic acid], at ATX (setting [1]), the IC50 was greater than 100 µM. In the data set “Solubility (Table S1)”, the Solubility result is given as “YES”.

For `FC(F)(F)c1ccc2c(c1)nc(SCc1ccccc1)n2CCc1ccccc1` [RDR02791, 2-benzylsulfanyl-1-(2-phenylethyl)-5-(trifluoromethyl)benzimidazole], the IC50 at ATX (setting [1]) is greater than 100 µM. Besides, the Solubility entry in “Solubility (Table S1)” is listed as “YES”.

For the molecule `CC(=O)Oc1ccccc1C(=CC=C(c1ccccc1)c1ccccc1)N1CCOCC1` [RF01254, 2-(1-morpholino-4,4-diphenylbuta-1,3-dienyl)phenyl acetate], the IC50 at ATX (setting [1]) was greater than 100 µM. Also, the Solubility result in the data set “Solubility (Table S1)” is reported as “YES”.

With `COc1ccc(-n2c(-c3ccc(Cl)cc3)cc(-c3cccs3)c2-c2ccccc2)cc1` [RG00099, 5-(4-chlorophenyl)-1-(4-methoxyphenyl)-2-phenyl-3-(2-thienyl)-1H-pyrrole], the IC50 at ATX (setting [1]) is greater than 100 µM. Moreover, the Solubility result in the data set “Solubility (Table S1)” is reported as “YES”.

For the molecule `NC(=NOC(=O)c1ccc(-c2cccs2)s1)c1cccc(C(F)(F)F)c1` [SEW02612, N'-{[5-(2-thienyl)-2-thienylcarbonyl]oxy}-3-(trifluoromethyl)benzenecarboximidamide], the IC50 on ATX (setting [1]) was greater than 100 µM. Further, the Solubility entry in “Solubility (Table S1)” is given as “YES”.

For the molecule `O=S(=O)(Nc1cc(-c2cccs2)nn1-c1ccc(F)cc1)c1ccc(-c2cc(C(F)(F)F)on2)s1` [SP00998], the half-inhibitory concentration (IC50) at ATX (setting [1]) was greater than 100 µM. For the same molecule, the Solubility result in the data set “Solubility (Table S1)” is recorded as “YES”.
